The source made the active and inactive calls. No cut-off for these calls is given here.
Key:
Protein argonaute-2 [1] = target: T1, Protein argonaute-2 (Homo sapiens, UniProt Q9UKV8); experiment: Binding affinity to human Argonaut protein 2 PAZ domain assessed as change in entropy by isothermal titration microcalorimetry
HeLa [2] = experiment: Inhibition of RNAi in human Hela cells expressing Renilla/firefly luciferase genes and siRNA assessed as siRNA-mediated gene silencing activity at 100 to 500 nM by dual luciferase assay relative to control; assay type: cell-based; conditions: dose 100-500 nM
Protein argonaute-2 [3] = target: T1, Protein argonaute-2; experiment: Binding affinity to human Argonaut protein 2 PAZ domain assessed as change in enthalpy by isothermal titration microcalorimetry
Protein argonaute-2 [4] = target: T1, Protein argonaute-2; experiment: Binding affinity to human Argonaut protein 2 PAZ domain assessed as association constant by using isothermal titration microcalorimetry
HeLa [5] = experiment: Inhibition of RNAi in human Hela cells expressing Renilla/firefly luciferase genes and siRNA assessed as siRNA-mediated gene silencing activity at 500 nM by dual luciferase assay relative to control; assay type: cell-based
Protein argonaute-2 [6] = target: T1, Protein argonaute-2; experiment: Binding affinity to human Argonaut protein 2 PAZ domain assessed as dissociation constant by using isothermal titration microcalorimetry

T1 sequence (Q9UKV8 whole entry, the tested form may be a part): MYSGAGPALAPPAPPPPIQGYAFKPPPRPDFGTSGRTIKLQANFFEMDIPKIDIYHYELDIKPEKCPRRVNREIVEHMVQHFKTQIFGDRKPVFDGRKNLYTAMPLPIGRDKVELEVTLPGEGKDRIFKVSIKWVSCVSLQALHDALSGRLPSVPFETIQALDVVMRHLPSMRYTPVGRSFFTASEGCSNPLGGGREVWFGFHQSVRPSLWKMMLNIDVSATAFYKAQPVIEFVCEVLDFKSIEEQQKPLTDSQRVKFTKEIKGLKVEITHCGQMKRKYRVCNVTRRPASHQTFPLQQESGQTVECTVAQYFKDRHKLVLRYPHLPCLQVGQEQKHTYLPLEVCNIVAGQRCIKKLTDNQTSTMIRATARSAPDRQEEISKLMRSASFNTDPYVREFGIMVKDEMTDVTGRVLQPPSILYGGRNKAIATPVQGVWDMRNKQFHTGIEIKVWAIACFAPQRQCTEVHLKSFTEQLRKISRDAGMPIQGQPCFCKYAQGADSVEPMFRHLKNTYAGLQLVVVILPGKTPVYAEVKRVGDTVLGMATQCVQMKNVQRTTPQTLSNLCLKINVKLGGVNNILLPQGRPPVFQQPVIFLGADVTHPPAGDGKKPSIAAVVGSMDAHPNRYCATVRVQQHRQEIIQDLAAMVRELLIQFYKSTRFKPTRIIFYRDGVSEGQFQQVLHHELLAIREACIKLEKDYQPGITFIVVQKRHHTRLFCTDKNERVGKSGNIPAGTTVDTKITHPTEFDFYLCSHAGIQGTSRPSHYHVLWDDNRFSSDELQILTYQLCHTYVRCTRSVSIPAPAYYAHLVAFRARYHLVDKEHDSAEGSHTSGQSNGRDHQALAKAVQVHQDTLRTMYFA

SMILES: Nc1ccc(S(N)(=O)=O)cc1
- deltaS (Protein argonaute-2 [1]): 15.7 cal/mol.K
- inhibition (HeLa [2]): inactive

SMILES: O=c1ccn([C@@H]2O[C@H](COP(=O)(O)O)[C@@H](O)[C@H]2O)c(=O)[nH]1
- deltaH (Protein argonaute-2 [3]): -0.9 kcal/mol
- deltaS (Protein argonaute-2 [1]): 18.2 cal/mol.K
- Ka (Protein argonaute-2 [4]): 6.6 10^4/M

SMILES: Cc1cc(NS(=O)(=O)c2ccc(N)cc2)nc(C)n1 [SULFISOMIDINE]
- deltaH (Protein argonaute-2 [3]): -1.5 kcal/mol
- deltaS (Protein argonaute-2 [1]): 19.2 cal/mol.K
- inhibition (HeLa [5]): Active
- Ka (Protein argonaute-2 [4]): 23 10^4/M
- inhibition (HeLa [2]): Dose-dependent effect
- Kd (Protein argonaute-2 [6]): 4.3 µM

SMILES: [H]/N=C(/N)NS(=O)(=O)c1ccc(N)cc1 [SULFAGUANIDINE]
- Kd (Protein argonaute-2 [6]): 49 µM

SMILES: N=C(N)NS(=O)(=O)c1ccc(N)cc1
- deltaH (Protein argonaute-2 [3]): -1.5 kcal/mol
- deltaS (Protein argonaute-2 [1]): 15.6 cal/mol.K
- Ka (Protein argonaute-2 [4]): 2 10^4/M
- inhibition (HeLa [2]): inactive

Reference: ChEMBL document CHEMBL4673266, “Sulfonamide antibiotics inhibit RNAi by binding to human Argonaute protein 2 PAZ” (Bioorg Med Chem Lett, 2020)
